Assay results as given in the SangsterLogP compilation.

Structure (SMILES)	logP
Oc1c(Cl)cc(-c2ccc(Cl)cc2)cc1Cl	5.22
Oc1ccc(-c2ccc(O)cc2)cc1	2.66
Oc1ccc(-c2ccccc2)cc1	3.33
Oc1ccc(-c2cc(Cl)c(Cl)c(Cl)c2Cl)cc1	5.81
Oc1ccc(-c2c(Cl)cc(Cl)cc2Cl)cc1	5.22
Oc1ccc(-c2cc(Cl)ccc2Cl)cc1	4.63
Oc1ccc(-c2c(Cl)cccc2Cl)cc1	4.63
Oc1ccc(-c2ccc(Cl)cc2)cc1	4.04
Oc1ccc(-c2ccccc2)c(Cl)c1	4.04
Oc1c(Cl)cc(-c2cc(Cl)c(O)c(Cl)c2)cc1Cl	5.14
Oc1ccc(-c2ccc(O)cc2Cl)cc1	3.37
